Laboratory results taken from paper PMC9569578, “In Planta, In Vitro and In Silico Studies of Chiral N^6-Benzyladenine Derivatives: Discovery of Receptor-Specific S-Enantiomers with Cytokinin or Anticytokinin Activities” (International Journal of Molecular Sciences, 2022).

How the values were obtained:
Test in all cases: radioligand competition with 3H-isopentenyladenine, plant microsomes
Assay type in all cases: binding
Conditions in all cases: 1 µM compound vs 3H-iP (2 pmol per sample), membranes of N. benthamiana
[1] = biological target: T1, AHK2 (Arabidopsis thaliana, UniProt Q9C5U2)
T1 construct: receptor fused with GFP, transiently expressed in Nicotiana benthamiana leaves; microsomal membranes
T1 sequence (Q9C5U2 1-1176): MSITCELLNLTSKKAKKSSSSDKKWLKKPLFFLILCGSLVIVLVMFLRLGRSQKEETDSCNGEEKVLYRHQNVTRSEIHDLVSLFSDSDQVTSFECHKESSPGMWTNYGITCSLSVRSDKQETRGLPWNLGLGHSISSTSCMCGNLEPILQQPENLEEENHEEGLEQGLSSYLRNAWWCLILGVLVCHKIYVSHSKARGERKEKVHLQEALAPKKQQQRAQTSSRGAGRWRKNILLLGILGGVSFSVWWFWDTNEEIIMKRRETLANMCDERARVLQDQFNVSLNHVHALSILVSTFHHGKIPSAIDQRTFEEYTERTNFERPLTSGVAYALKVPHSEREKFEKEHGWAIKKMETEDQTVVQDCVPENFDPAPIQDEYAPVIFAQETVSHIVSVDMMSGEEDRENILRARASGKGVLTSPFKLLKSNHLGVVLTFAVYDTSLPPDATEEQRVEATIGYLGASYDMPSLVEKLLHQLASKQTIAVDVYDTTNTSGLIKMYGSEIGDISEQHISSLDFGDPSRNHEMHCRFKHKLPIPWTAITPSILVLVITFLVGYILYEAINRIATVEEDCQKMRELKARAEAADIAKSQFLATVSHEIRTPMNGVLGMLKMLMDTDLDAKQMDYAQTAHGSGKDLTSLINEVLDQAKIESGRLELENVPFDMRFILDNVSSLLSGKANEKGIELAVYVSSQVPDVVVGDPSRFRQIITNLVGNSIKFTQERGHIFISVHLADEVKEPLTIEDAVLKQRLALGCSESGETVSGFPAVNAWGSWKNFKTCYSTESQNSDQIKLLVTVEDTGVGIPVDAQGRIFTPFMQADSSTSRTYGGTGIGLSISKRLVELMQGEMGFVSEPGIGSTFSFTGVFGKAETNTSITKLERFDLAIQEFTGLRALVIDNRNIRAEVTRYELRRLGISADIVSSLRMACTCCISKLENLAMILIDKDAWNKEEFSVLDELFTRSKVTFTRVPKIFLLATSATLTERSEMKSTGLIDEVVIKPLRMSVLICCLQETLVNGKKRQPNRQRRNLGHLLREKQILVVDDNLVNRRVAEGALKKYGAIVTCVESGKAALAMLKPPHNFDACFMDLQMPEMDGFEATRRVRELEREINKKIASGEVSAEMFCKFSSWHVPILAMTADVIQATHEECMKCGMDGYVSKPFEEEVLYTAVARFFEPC
From the text: radioligand competition with 3H-isopentenyladenine, plant microsomes on AHK2

[2] = biological target: T2, AHK3 (Arabidopsis thaliana, UniProt Q9C5U1)
T2 construct: receptor fused with GFP, transiently expressed in Nicotiana benthamiana leaves; microsomal membranes
T2 sequence (Q9C5U1 1-1036): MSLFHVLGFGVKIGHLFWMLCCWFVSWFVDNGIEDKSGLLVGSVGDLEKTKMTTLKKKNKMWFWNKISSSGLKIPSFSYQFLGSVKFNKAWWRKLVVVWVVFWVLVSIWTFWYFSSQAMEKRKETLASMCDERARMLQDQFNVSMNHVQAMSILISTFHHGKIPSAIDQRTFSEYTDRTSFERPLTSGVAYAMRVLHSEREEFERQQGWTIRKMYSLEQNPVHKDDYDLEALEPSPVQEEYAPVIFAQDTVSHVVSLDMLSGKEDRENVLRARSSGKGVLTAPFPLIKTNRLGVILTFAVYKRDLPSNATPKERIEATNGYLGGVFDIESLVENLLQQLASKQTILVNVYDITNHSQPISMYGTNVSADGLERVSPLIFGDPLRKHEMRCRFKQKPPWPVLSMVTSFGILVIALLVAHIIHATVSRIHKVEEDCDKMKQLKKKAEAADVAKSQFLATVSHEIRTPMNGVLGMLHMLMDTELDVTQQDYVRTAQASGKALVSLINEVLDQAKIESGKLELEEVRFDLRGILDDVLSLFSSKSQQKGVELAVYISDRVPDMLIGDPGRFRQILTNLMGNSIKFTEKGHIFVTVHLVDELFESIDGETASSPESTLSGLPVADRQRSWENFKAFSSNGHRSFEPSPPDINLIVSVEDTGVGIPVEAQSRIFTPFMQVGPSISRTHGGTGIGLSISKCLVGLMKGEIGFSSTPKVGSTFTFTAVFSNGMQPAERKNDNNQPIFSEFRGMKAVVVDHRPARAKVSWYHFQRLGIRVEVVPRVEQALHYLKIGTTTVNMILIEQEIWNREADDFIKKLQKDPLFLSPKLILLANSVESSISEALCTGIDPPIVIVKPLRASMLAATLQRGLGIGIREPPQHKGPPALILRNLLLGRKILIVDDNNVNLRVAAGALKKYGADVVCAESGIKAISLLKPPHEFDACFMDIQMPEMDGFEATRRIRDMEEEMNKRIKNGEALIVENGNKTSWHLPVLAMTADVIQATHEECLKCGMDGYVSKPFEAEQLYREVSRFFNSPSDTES
From the text: radioligand competition with 3H-isopentenyladenine, plant microsomes on AHK3

[3] = biological target: T3, CRE1/AHK4 (Arabidopsis thaliana, UniProt Q9C5U0)
T3 construct: receptor fused with GFP, transiently expressed in Nicotiana benthamiana leaves; microsomal membranes
From the text: radioligand competition with 3H-isopentenyladenine, plant microsomes on CRE1/AHK4

T3 sequence (Q9C5U0 whole entry, the tested form may be a part): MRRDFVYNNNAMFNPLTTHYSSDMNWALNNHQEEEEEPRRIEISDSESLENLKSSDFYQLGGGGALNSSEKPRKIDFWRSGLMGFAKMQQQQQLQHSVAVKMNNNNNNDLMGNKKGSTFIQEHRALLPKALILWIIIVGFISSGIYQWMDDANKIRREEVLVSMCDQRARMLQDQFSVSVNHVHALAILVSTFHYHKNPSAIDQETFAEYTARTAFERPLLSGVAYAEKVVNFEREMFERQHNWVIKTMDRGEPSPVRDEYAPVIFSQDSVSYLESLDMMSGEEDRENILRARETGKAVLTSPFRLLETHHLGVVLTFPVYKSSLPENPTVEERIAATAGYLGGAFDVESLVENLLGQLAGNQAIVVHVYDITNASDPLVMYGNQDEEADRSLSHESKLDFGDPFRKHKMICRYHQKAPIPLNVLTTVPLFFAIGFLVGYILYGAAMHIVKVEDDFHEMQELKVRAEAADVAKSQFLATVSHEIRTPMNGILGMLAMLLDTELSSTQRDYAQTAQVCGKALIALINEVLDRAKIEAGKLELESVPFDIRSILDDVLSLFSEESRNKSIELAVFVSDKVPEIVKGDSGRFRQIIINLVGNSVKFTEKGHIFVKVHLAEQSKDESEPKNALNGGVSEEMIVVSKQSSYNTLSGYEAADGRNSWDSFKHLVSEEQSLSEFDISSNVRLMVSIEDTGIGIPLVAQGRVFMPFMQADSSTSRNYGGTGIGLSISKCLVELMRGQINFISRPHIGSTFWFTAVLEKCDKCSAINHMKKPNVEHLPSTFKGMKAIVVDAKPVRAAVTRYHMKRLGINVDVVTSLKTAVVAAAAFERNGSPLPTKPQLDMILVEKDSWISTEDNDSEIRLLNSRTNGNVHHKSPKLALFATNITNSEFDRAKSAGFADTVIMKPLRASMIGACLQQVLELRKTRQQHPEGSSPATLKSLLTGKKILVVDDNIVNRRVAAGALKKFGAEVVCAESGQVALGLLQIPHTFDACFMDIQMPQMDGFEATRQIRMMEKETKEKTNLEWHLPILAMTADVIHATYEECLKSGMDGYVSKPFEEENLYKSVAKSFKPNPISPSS

SMILES | АНК2 / 1 μM [1] [%] | АНК3 / 1 μM [2] [%] | CRE1/AHK4 / 1 μM [3] [%]
C[C@H](Nc1nc(F)nc2nc[nH]c12)c1ccccc1 [6b, 2-fluoro,N^6-((S)-α-methylbenzyl) adenine] | 8.7 ± 0.9 | 74.7 ± 1.7 | 45.8 ± 0.3
C[C@@H](Nc1ncnc2[nH]cnc12)c1ccccc1 [5a, N^6-((R)-α-methylbenzyl) adenine] | 88.9 ± 0.5 | 97.7 ± 1.0 | 87.7 ± 1.0
C[C@H](Nc1ncnc2[nH]cnc12)c1ccccc1 [5b, N^6-((S)-α-methylbenzyl) adenine] | 8.9 ± 4.9 | 46.5 ± 2.2 | –

More lines, now with the values ahead:

АНК2 / 1 μM [1] [%] | АНК3 / 1 μM [2] [%] | CRE1/AHK4 / 1 μM [3] [%] | SMILES
92.1 ± 1.0 | 99.8 ± 1.5 | 97.2 ± 0.9 | C[C@@H](Nc1nc(F)nc2[nH]cnc12)c1ccccc1 [6a, 2-fluoro,N^6-((R)-α-methylbenzyl) adenine]
3.1 ± 0.4 | 80.6 ± 1.5 | 37.1 ± 1.2 | C[C@H](Nc1nc(Cl)nc2[nH]cnc12)c1ccccc1 [7b, 2-chloro,N^6-((S)-α-methylbenzyl) adenine]
58.8 ± 1.3 | 54.7 ± 1.1 | 30.4 ± 1.0 | C[C@@H](Nc1nc(N)nc2[nH]cnc12)c1ccccc1 [8a, 2-amino,N^6-((R)-α-methylbenzyl) adenine]
42.6 ± 0.4 | 88.9 ± 0.7 | 74.1 ± 1.6 | C[C@@H](Nc1nc(Cl)nc2[nH]cnc12)c1ccccc1 [7a, 2-chloro,N^6-((R)-α-methylbenzyl) adenine]
